{"source": "patent US4066635A", "about": "“L-Pyroglutamyl-L-histidyl-L-prolyl-beta-alaninamide and salts” (Hoffmann-La Roche Inc., priority 1976, dated 1978)", "key": {"[1]": {"test_system": "noradrenalin (NA) in the entire brain of male mice", "assay": "Lowering of noradrenalin (NA) in entire brain of mice after FLA 63 (FLA 63-induced NA-lowering)", "type": "in vivo, mouse", "procedure": "The action of antidepressants can be explained by the fact that such substances normalise the activity of noradrenergic neurones in the brain, this activity being altered in the case of depressive illness. […] If a test substance has NA-liberating action, then this manifests itself in an intensification of the FLA63-induced NA-lowering.\nIn order to determine the antidepressant action of the compound of formula I hereinbefore, the lowering of NA in the entire brain of male mice was determined 90 minutes after the i.p. injection of FLA 63 (5 mg/kg)."}, "mice": {"test_system": "mice", "assay": "Locomotor activity in mice", "type": "in vivo, mouse"}, "[2]": {"assay": "Toxicity (LD 10, LD 50) in the mouse", "type": "in vivo", "settings": "in vivo, iv"}, "mouse": {"test_system": "mouse", "assay": "Toxicity (LD 10, LD 50) in the mouse", "type": "in vivo", "settings": "p.o."}}, "note": "Non-standard residues stand in square brackets, D forms with d. Residues, ends and D or L forms follow the SMILES beside them. pGlu = O=C1CC[C@@H](C(=O)O)N1; βAla = NCCC(=O)O", "data": [{"compound": "NC(=O)CCNC(=O)[C@@H]1CCCN1C(=O)[C@H](Cc1c[nH]cn1)NC(=O)[C@@H]1CCC(=O)N1", "note": "[compound of formula I, L-pyroglutamyl-L-histidyl-L-prolyl-β-alaninamide] ([pGlu]HP[βAla]-NH2)", "values": [{"measurement": "Noradrenalin (%)", "setting": "[1]; FLA 63 5 mg/kg i.p. plus test substance injected simultaneously, 90 minutes, entire brain, male mice, FLA 63 alone = 100%", "value": "82.2 ± 2.6", "unit": "%"}, {"measurement": "liberation of NA in the brain of mice (in words)", "setting": "[1]; mice", "value": "increases the liberation of NA"}, {"measurement": "FLA 63-induced NA-lowering (in words)", "setting": "[1]; simultaneous injection with FLA 63 (5 mg/kg i.p.), 90 minutes, male mice", "value": "significant acceleration of the FLA 63-induced NA-lowering"}, {"measurement": "locomotor activity in mice (in words)", "setting": "mice", "value": "increase in the locomotor activity"}, {"measurement": "LD50", "setting": "[2]", "value": "> 4000", "unit": "mg/kg"}, {"measurement": "LD 10", "setting": "mouse", "value": "above 8 g/kg"}]}]}
